Laboratory results published in patent US20050020516A1, “Effects of combined administration of farnesyl transferase inhibitors and signal transduction inhibitors” (Whitehead Institute for Biomedical Research, priority 2000, published 2005).

Legend:
[1] = system: BaF3-BCR/ABL cells; assay: Soft agar colony formation of BaF3-BCR/ABL cells; type: cell-based, murine; details: Mus musculus, 240 h; BaF3-BCR/ABL cells in soft agar, colonies counted day 10; read-out: IC50, inhibition of soft agar colony number
[2] = system: STI-571 resistant BaF3-BCR/ABL cells; assay: Proliferation in liquid culture, viable cells by dye exclusion; type: cell-based, murine; details: 0.5 or 1.0 μM STI-571 or increasing concentrations of SCH66336
Method: Viable cells were assessed at daily intervals by dye exclusion.

[3] = system: STI-571 resistant K562 cells; assay: Proliferation in liquid culture; type: cell-based, human; details: STI-571 resistant K562, similar manner as parental line
[4] = system: STI-571 resistant AR230 cells; assay: Proliferation in liquid culture; type: cell-based, human; details: STI-571 resistant AR230, similar manner as parental line
[5] = system: STI-571 resistant LAMA84 cells; assay: Proliferation in liquid culture; type: cell-based, human; details: STI-571 resistant LAMA84, similar manner as parental line
[6] = system: STI-571 resistant hematopoietic progenitors from CML patients; assay: Methylcellulose hematopoietic colony assay of primary cells from CML patients relapsed on STI-571; type: cell-based; details: Homo sapiens, read-out: IC50, colony formation of STI-571 resistant hematopoietic progenitors
Method: Numbers are normalized to control (DMSO) and are presented as means +/−S.D. of duplicate plates.
Low density mononucleocytes were isolated from either fresh or cryo-preserved peripheral blood using Lymphoprep (Nycomed, Oslo, Norway). […] All clonogenic assays were performed in duplicate.

[7] = system: STI-571 sensitive or resistant BCR/ABL positive cell lines (BaF3-BCR/ABL, K562, LAMA-84, AR230); assay: Cell viability by trypan blue dye exclusion; type: cell-based; details: SCH66336 alone at concentrations up to 5 μM, STI-571 sensitive or resistant cell lines
Method: FIGS. 9A-9E are graphs showing that SCH66336 and STI571 in combination induce apoptosis in STI571 resistant cells. […] Viability of cells was assessed at daily intervals by dye exclusion.

[8] = system: parental BaF3-BCR/ABL cells; assay: Caspase-3 immunoblotting (cleavage of procaspase-3); details: protein lysates of treated cells
Method: (§1) Some cells were lysed and subjected to immunoblotting with caspase-3 antibody (FIG. 8A) or analyzed for annexin V staining (FIG. 8B) by FACS using the Apo-Alert kit (Clontech).
Cells were washed in cold PBS and lysed in NP-40 lysis buffer (1% NP-40, 150 mM NaCl, 20 mM Tris (pH 7.4), 10% glycerol, 10 mM NaVO3, 1 mM ZnCl2, 1 mM MgCl2, and 2 mM PMSF). Approximately 50 ug of protein were separated by SDS-PAGE and electrophoretically transferred to nitrocellulose membrane using standard protocols. Membranes were incubated with primary and secondary antibodies in TBST buffer (20 mM Tris-HCl [pH 7.4], 500 mM NaCl, 0.01% Tween 20) containing 5% dry milk. Immunoreactivity was detected by enhanced chemiluminescence.

[9] = system: parental BaF3-BCR/ABL cells; assay: Apoptosis by annexin V staining (ApoAlert Annexin V kit, FACS); details: 2.0 uM SCH66336, 48 hours
Method: as §1
Apoptosis was measured in cells after incubation with drugs by staining for annexin-positive cells using the ApoAlert Annexin V kit (Clontech, Palo Alto, Calif.). Flow cytometry analysis was performed using Cell Quest (Becton Dickinson, Franklin Lakes, N.J.).

[10] = system: STI-571 resistant clone of a BaF3-BCR/ABL; assay: Soft agar colony formation of STI-571 resistant BaF3-BCR/ABL clone; details: STI-571 resistant BaF3-BCR/ABL clone compared with parental cells
Description: Macroscopic colonies were counted in duplicate plates on day 10. In some cases colony numbers were normalized by dividing the number of colonies under a given condition by the number of colonies formed in the presence of no drug (DMSO alone).

Q: `NC(=O)N1CCC(CC(=O)N2CCC([C@H]3c4ncc(Br)cc4CCc4cc(Cl)cc(Br)c43)CC2)CC1` [SCH66336] was tested. Which IC50 [1] did it give?
A: ~100 nM

Q: What about the “effect on growth / proliferation” value [2] of the same compound?
A: dose-dependent inhibition of proliferation

Q: And the effect on proliferation [3]?
A: inhibits the proliferation

Q: And the effect on proliferation [4]?
A: inhibits the proliferation

Q: What about the effect on proliferation [5] of the same compound?
A: inhibits the proliferation

Q: And the IC50 [6]?
A: 250 to 500 nM

Q: What about the “effect on cell viability” value [7] of the same compound?
A: little effect on cell viability

Q: And the “levels of active caspase-3 (immunoblot)” value [8]?
A: low levels of active caspase-3

Q: And the “levels of annexin V staining” value [9]?
A: Low levels of annexin V staining

Q: What about the “effect on soft agar colony formation of STI-571 resistant clone” value [10] of the same compound?
A: as sensitive, if not more so
